In patent US8716480B2, “7-aryl-1,2,4-triazolo[4,3-a]pyridine derivatives and their use as positive allosteric modulators of mGluR2 receptors” (Janssen Pharmaceuticals, Inc., priority 2009, dated 2014):

Target: T1, human mGluR2 receptor (Homo sapiens, UniProt Q14416)
T1 construct: expressed in transfected cells; host or cells: CHO cells (membranes)
Assay: [35S]GTPγS binding assay (PAM)
Type: biochemical
Conditions: in presence of glutamate at predetermined EC20; membranes from CHO cells transfected with human mGluR2
Description: [^35S]GTPγS binding assay
The [^35S]GTPγS binding assay is a functional membrane-based assay used to study G-protein coupled receptor (GPCR) function whereby incorporation of a non-hydrolysable form of GTP, [^35S]GTPγS (guanosine 5′-triphosphate, labelled with […] ^35S), is measured.
CHO-cells were cultured to pre-confluence and stimulated with 5 mM butyrate for 24 h, prior to washing in PBS, and then collected by scraping in homogenisation buffer (50 mM Tris-HCl buffer, pH 7.4, 4° C.). Cell lysates were homogenized briefly using an ultra-turrax homogenizer. The homogenate was centrifuged at 16,000 RPM (Sorvall RC-5C plus rotor SS-34) for 10 minutes and the supernatant discarded. The pellet was resuspended in 5 mM Tris-HCl, pH 7.4 and centrifuged again (18,000 RPM, 20 min, 4° C.). The final pellet was resuspended in 50 mM Tris-HCl, pH 7.4 and stored at −80° C. in appropriate aliquots before use. Protein concentration was determined by the Bradford method (Bio-Rad, USA) with bovine serum albumin as standard.
Measurement of mGluR2 positive allosteric modulatory activity of test compounds was performed as follows. Test compounds and glutamate were diluted in assay buffer containing 10 mM HEPES acid, 10 mM HEPES salt, pH 7.4, 100 mM NaCl, 3 mM MgCl2 and 10 μM GDP. Human mGlu2 receptor-containing membranes were thawed on ice and diluted in assay buffer supplemented with 14 μg/ml saponin. Membranes were pre-incubated with compound alone or together with a predefined (˜EC20) concentration of glutamate (PAM assay) for 30 min at 30° C. After addition of [^35S]GTPγS (f.c. 0.1 nM) microplates were shaken briefly and further incubated to allow [^35S]GTPγS incorporation on activation (30 minutes, 30° C.). Final assay mixtures contained 7 μg of membrane protein in 10 mM HEPES acid, 10 mM HEPES salt, pH 7.4, 100 mM NaCl, 3 mM MgCl2, 10 μM GDP and 10 μg/ml saponin. Total reaction volume was […] Reactions were terminated by rapid filtration through Unifilter-96 GF/B filter plates (Packard, Meriden, Conn.) using a 96-well Packard filtermate harvester. Filters were washed 6 times with ice-cold 10 mM NaH2PO4/10 mM Na2HPO4, pH 7.4. Filters were then air-dried, and 40 μl of liquid scintillation cocktail (Microscint-O) was added to each well. Membrane-bound radioactivity was counted in a Microplate Scintillation and Luminescence Counter from Packard.
obtained in the presence of EC20 of mGluR2 agonist glutamate to determine positive allosteric modulation (PAM)—were generated using the Lexis software interface (developed at J&J). Data were calculated as % of the control glutamate response, defined as the maximal response that is generated upon addition of glutamate alone. Sigmoid concentration-response curves plotting these percentages versus the log concentration of the test compound were analyzed using non-linear regression analysis. The concentration producing half-maximal effect is then calculated as EC50.
All compounds were tested in presence of mGluR2 agonist, glutamate at a predetermined EC20 concentration, to determine positive allosteric modulation (GTPγS-PAM). pEC50 values were calculated from a concentration-response experiment of at least 10 concentrations.

T1 sequence (Q14416 19-872): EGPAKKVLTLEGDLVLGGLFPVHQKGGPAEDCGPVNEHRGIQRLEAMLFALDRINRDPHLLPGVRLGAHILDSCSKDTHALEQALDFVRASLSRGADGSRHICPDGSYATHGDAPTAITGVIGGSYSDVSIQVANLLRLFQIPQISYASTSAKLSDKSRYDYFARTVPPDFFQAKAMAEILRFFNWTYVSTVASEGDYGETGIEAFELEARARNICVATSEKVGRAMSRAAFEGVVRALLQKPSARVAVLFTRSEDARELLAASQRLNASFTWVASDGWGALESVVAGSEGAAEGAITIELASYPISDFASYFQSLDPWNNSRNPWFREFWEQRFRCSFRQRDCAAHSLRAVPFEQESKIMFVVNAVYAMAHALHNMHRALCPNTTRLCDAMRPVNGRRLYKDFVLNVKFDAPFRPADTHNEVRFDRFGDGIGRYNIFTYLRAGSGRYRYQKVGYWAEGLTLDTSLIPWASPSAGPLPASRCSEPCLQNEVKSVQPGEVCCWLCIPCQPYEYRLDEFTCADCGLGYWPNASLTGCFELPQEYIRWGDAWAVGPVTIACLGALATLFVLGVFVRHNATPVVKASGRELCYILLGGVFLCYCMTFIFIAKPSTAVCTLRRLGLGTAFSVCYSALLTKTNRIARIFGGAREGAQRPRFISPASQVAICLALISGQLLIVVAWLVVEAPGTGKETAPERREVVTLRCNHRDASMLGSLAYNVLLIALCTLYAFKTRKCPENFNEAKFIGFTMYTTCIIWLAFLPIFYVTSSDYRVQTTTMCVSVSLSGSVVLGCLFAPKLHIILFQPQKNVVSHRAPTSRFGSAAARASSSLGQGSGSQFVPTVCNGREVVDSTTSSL

Point of comparison: `O[C@H]1CC[C@H](Nc2ccc(-c3ccn4c(CC(F)(F)F)nnc4c3Cl)cc2Cl)CC1` [Co. No. 29], “GTPγS -hR2 PAM pEC50” value 7.40. Against it:
- Clc1c(-c2ccc(Oc3ccccc3)cc2)ccn2c(C3CCC3)nnc12 [Co. No. 17] — lower, 6.88
- FC(F)(F)C1CCN(Cc2ccc(-c3ccn4c(CC5CC5)nnc4c3Cl)cc2)CC1 [Co. No. 19] — lower, 6.13
- O[C@H]1CC[C@H](Nc2ccc(-c3ccn4c(CC5CC5)nnc4c3Cl)cc2Cl)CC1 [Co. No. 21] — lower, 7.11
- Clc1cc(-c2ccn3c(CC4CC4)nnc3c2Cl)ccc1OC1CCOCC1 [Co. No. 23] — lower, 6.53
- Fc1cc(-c2ccn3c(CC4CC4)nnc3c2Cl)ccc1NC1CC1 [Co. No. 25] — lower, 7.20
- O[C@H]1CC[C@@H](Oc2ccc(-c3ccn4c(CC(F)(F)F)nnc4c3Cl)cc2Cl)CC1 [Co. No. 26] — lower, 7.01
- O[C@H]1CC[C@H](Oc2ccc(-c3ccn4c(CC(F)(F)F)nnc4c3Cl)cc2Cl)CC1 [Co. No. 27] — lower, 6.80
- Clc1c(-c2ccccc2)ccn2c(CN3CCOc4ccccc4C3)nnc12 [Co. No. 28] — lower, 6.05
- FC(F)(F)Cc1nnc2c(Cl)c(-c3ccc(NC4CCOCC4)c(Cl)c3)ccn12 [Co. No. 30] — lower, 6.66
- FC(F)(F)c1c(-c2ccc(NC3CC3)c(Cl)c2)ccn2c(CC3CC3)nnc12 [Co. No. 31] — higher, 8.15
- CCOCc1nnc2c(Cl)c(-c3ccc(Oc4ccc(C)nc4C)c(F)c3)ccn12 [Co. No. 33] — lower, 7.13
- CCOCc1nnc2c(C(F)(F)F)c(-c3ccc(Oc4cc(C)nc(C)c4)c(F)c3)ccn12 [Co. No. 37] — lower, 6.63
- Cc1cc(Oc2ccc(-c3ccn4c(CC5CC5)nnc4c3C(F)(F)F)cc2F)cc(C)n1 [Co. No. 38] — lower, 7.16
- Cc1cc(Oc2ccc(-c3ccn4c(CC(F)(F)F)nnc4c3Cl)cc2Cl)ccn1 [Co. No. 40] — lower, 6.78
- Cc1cc(Oc2ccc(-c3ccn4c(CCC5CC5)nnc4c3Cl)cc2F)ccn1 [Co. No. 41] — lower, 6.54
- CCOCc1nnc2c(C(F)(F)F)c(-c3ccc(Oc4ccc(C)nc4C)c(F)c3)ccn12 [Co. No. 44] — within 0.2 log units, 7.51
- O[C@]1(C2CC2)CC[C@H](Nc2ccc(-c3ccn4c(CC5CC5)nnc4c3C(F)(F)F)cc2Cl)CC1 [Co. No. 47] — higher, 8.79
- CC(C)Nc1ccc(-c2ccn3c(CC4CC4)nnc3c2Cl)cc1F [Co. No. 50] — lower, 6.65
- CC(C)Nc1ccc(-c2ccn3c(CC4CC4)nnc3c2Cl)cc1Cl [Co. No. 51] — lower, 7.13
- CC(C)Nc1ccc(-c2ccn3c(CC4CC4)nnc3c2C(F)(F)F)cc1Cl [Co. No. 52] — higher, 7.77
- Cc1ccc(Oc2ccc(-c3ccn4c(CC5CC5)nnc4c3C(F)(F)F)cc2Cl)c(C)n1 [Co. No. 53] — higher, 8.79
- Cc1ccc(Oc2ccc(-c3ccn4c(CC(F)(F)F)nnc4c3Cl)cc2Cl)c(C)n1 [Co. No. 55] — higher, 8.00
- COc1ccc(CNc2ccc(-c3ccn4c(CC5CC5)nnc4c3Cl)cc2)cn1 [Co. No. 59] — lower, 7.15
- Cc1ccc(Oc2ccc(-c3ccn4c(CC5CC5)nnc4c3C)cc2Cl)c(C)n1 [Co. No. 61] — higher, 7.70
- CCOCc1nnc2c(C)c(-c3ccc(Oc4ccc(C)nc4C)c(Cl)c3)ccn12 [Co. No. 65] — within 0.2 log units, 7.26
- CC(C)Nc1ccc(-c2ccn3c(CC4CC4)nnc3c2Cl)cn1 [Co. No. 66] — lower, 6.51
- Clc1c(-c2ccc(N3CCOCC3)nc2)ccn2c(CC3CC3)nnc12 [Co. No. 67] — lower, 5.61
- FC(F)(F)c1c(-c2ccc(N3CCOCC3)nc2)ccn2c(CC3CC3)nnc12 [Co. No. 68] — lower, 5.90
- Clc1c(-c2ccc(N3CCCCC3)nc2)ccn2c(CC3CC3)nnc12 [Co. No. 69] — lower, 6.53
- FC(F)(F)c1c(-c2ccc(N3CCCCC3)nc2)ccn2c(CC3CC3)nnc12 [Co. No. 70] — lower, 6.67
- FC(F)(F)c1c(-c2ccc(CN3CCOCC3)c(Cl)c2)ccn2c(CC3CC3)nnc12 [Co. No. 71] — lower, 7.02
- CC1(O)CCN(Cc2ccc(-c3ccn4c(CC5CC5)nnc4c3C(F)(F)F)cc2Cl)CC1 [Co. No. 72] — lower, 6.49
- FC(F)(F)c1c(-c2ccc(CNC3CCOCC3)c(Cl)c2)ccn2c(CC3CC3)nnc12 [Co. No. 74] — lower, 6.21
- Cc1ccc(CNc2ccc(-c3ccn4c(CC5CC5)nnc4c3C(F)(F)F)cc2F)cn1 [Co. No. 78] — higher, 7.98

Same assay, conditions: in presence of glutamate at predetermined EC20; membranes from CHO cells transfected with human mGluR2; read-out: GTPγS -hR2 PAM pEC50 (converted)

Point of comparison: `Clc1c(-c2ccccc2)ccn2c(CN3CCC(c4ccccc4)CC3)nnc12` [Co. No. 5], EC50 191 nM. Against it:
- OC1CCC(Nc2ccc(-c3ccn4c(CC5CC5)nnc4c3Cl)cc2Cl)CC1 (single isomer, unassigned) [Co. No. 13-a, 7-[3-Chloro-4-(4-hydroxy-cyclohexylamino)-phenyl]-8-chloro-3-cyclopropylmethyl-[1,2,4]triazolo[4,3-a]pyridine] — 8.3-fold lower, 22.9 nM
- Clc1cc(-c2ccn3c(CC4CC4)nnc3c2Cl)ccc1NC1CC1 [Co. No. 6] — 5.3-fold lower, 36.3 nM
- FC(F)(F)c1c(-c2ccc(OC3CCOCC3)c(Cl)c2)ccn2c(CC3CC3)nnc12 [Co. No. 9, 8-Trifluoromethyl-7-[3-chloro-4-(tetrahydro-pyran-4-yloxy)-phenyl]-3-cyclopropylmethyl-[1,2,4]triazolo[4,3-a]pyridine] — 4.7-fold lower, 40.7 nM
- FC(F)(F)c1c(-c2ccc(NC3CCOCC3)c(Cl)c2)ccn2c(CC3CC3)nnc12 [Co. No. 10, 8-Trifluoromethyl-7-[3-chloro-4-(tetrahydro-pyran-4-ylamino)-phenyl]-3-cyclopropylmethyl-[1,2,4]triazolo[4,3-a]pyridine] — 11-fold lower, 17 nM
- O[C@H]1CC[C@H](Nc2ccc(-c3ccn4c(CC5CC5)nnc4c3Cl)cc2Cl)CC1 [Co. No. 12, 8-Cloro-7-[3-chloro-4-(4-hydroxy-cyclohexylamino)-phenyl]-3-cyclopropylmethyl-[1,2,4]triazolo[4,3-a]pyridine] — 4.6-fold lower, 41.7 nM
- CCOCc1nnc2c(C(F)(F)F)c(-c3ccc(Oc4ccnc(C)c4)c(F)c3)ccn12 [Co. No. 36, 3-Ethoxymethyl-7-[3-fluoro-4-(2-methyl-pyridin-4-yloxy)-phenyl]-8-trifluoromethyl-[1,2,4]triazolo[4,3-a]pyridine] — within 1.5-fold, 219 nM
- CC(C)Nc1ccc(-c2ccn3c(CC4CC4)nnc3c2C(F)(F)F)cc1F [Co. No. 49, 3-Cyclopropylmethyl-7-[3-fluoro-4-(isopropylamino)-phenyl]-8-trifluoromethyl-[1,2,4]triazolo[4,3-a]pyridine] — 3.2-fold lower, 60.3 nM

System: not given
Assay: not given
Conditions: not given

Molecule `Clc1cc(-c2ccn3c(CC4CC4)nnc3c2Cl)ccc1NC1CC1` [Co. No. 6] has a melting point greater than 300 °C.

Point of comparison: `Clc1c(-c2ccc(Oc3ccccc3)cc2)ccn2c(CC3CC3)nnc12` [Co. No. 8, 8-Chloro-3-cyclopropylmethyl-7-(4-phenoxy-phenyl)-1,2,4-triazolo[4,3-a]pyridine], melting point 156.7 °C. Against it:
- FC(F)(F)c1c(-c2ccc(OC3CCOCC3)c(Cl)c2)ccn2c(CC3CC3)nnc12 [Co. No. 9, 8-Trifluoromethyl-7-[3-chloro-4-(tetrahydro-pyran-4-yloxy)-phenyl]-3-cyclopropylmethyl-[1,2,4]triazolo[4,3-a]pyridine] — higher, 176.9 °C
- FC(F)(F)c1c(-c2ccc(NC3CCOCC3)c(Cl)c2)ccn2c(CC3CC3)nnc12 [Co. No. 10, 8-Trifluoromethyl-7-[3-chloro-4-(tetrahydro-pyran-4-ylamino)-phenyl]-3-cyclopropylmethyl-[1,2,4]triazolo[4,3-a]pyridine] — higher, 198.4 °C
- O[C@H]1CC[C@H](Nc2ccc(-c3ccn4c(CC5CC5)nnc4c3Cl)cc2Cl)CC1 [Co. No. 12, 8-Cloro-7-[3-chloro-4-(4-hydroxy-cyclohexylamino)-phenyl]-3-cyclopropylmethyl-[1,2,4]triazolo[4,3-a]pyridine] — higher, 273.7 °C
- CCOCc1nnc2c(C(F)(F)F)c(-c3ccc(Oc4ccnc(C)c4)c(F)c3)ccn12 [Co. No. 36, 3-Ethoxymethyl-7-[3-fluoro-4-(2-methyl-pyridin-4-yloxy)-phenyl]-8-trifluoromethyl-[1,2,4]triazolo[4,3-a]pyridine] — higher, 171.2 °C
- CC(C)Nc1ccc(-c2ccn3c(CC4CC4)nnc3c2C(F)(F)F)cc1F [Co. No. 49, 3-Cyclopropylmethyl-7-[3-fluoro-4-(isopropylamino)-phenyl]-8-trifluoromethyl-[1,2,4]triazolo[4,3-a]pyridine] — higher, 196.9 °C
